The text below walks through data of patent US20240325553A1, “CYTOSTATIC CONJUGATES WITH INTEGRIN LIGANDS” (priority 2018, published 2024).

Read-outs that look alike come from different tables or passages of the source. Bounds are passed on as bounds.

One series deals with Caco-2 cells. Description: Caco-2 flux assay for cellular permeability. In kind it is in vitro ADME. On the procedure:
(§1) The cell permeability of a substance can be investigated by means of in vitro testing in a flux assay using Caco-2 cells [M. D. Troutman and D. R. Thakker, Pharm. Res. 20 (8), 1210-1224 (2003)]. For this purpose. the cells were cultured for 15-16 days on 24-well filter plates. […] The samples were separated by HPLC (Agilent 1200. Böblingen. Germany) using reverse phase columns. […] 1716-1725 (2003)]. A substance was classified as actively transported when the ratio of Papp (B-A) to Papp (A-B) (efflux ratio) was >2 or <0.5.
In general terms: Caco-2 monolayers are a common model of the intestinal barrier.

A further series addresses P-gp (ABCB1) (Homo sapiens, UniProt P08183). Description: in vitro. The procedure: Many tumor cells express transporter proteins for drugs, and this frequently accompanies the development of resistance towards cytostatics.
The substrate properties of a substance for P-gp (ABCB1) were determined by means of a flux assay using LLC-PK1 cells which overexpress P-gp (L-MDR1 cells) [A. H. Schinkel et al., J. Clin. Invest. 96. 1698-1705 (1995)]. For this purpose. the LLC-PK1 cells or L-MDR1 cells were cultured on 96-well filter plates for 3-4 days. For determination of the permeation, the respective test substance, alone or in the presence of an inhibitor (such as ivermectin or verapamil, for example), was applied in a HEPES buffer to the cells either apically (A) or basally (B) and incubated for 2 hours. After ([…] and after 2 hours, samples were taken from the cis and trans compartments. The samples were separated by HPLC using reverse phase columns. The HPLC system was coupled via a Turbo Ion Spray Interface to a Triple Quadropol mass spectrometer API 3000 (Applied Biosystems Applera, Darmstadt, Germany). The permeability was evaluated on the basis of a Papp value, which was calculated using the formula published by Schwab et al. [D. Schwab et al. . . . J. Med. Chem. 46, 1716-1725 (2003)]. A substance was classified as P-gp substrate when the efflux ratio of Papp (B-A) to Papp (A-B) was >2.

In the next series the test system is NCI-H1975. Description: Cytotoxicity in vitro against NCI-H1975. The class given is cell-based. The text has this:
(§2) The cytotoxic activity of 7-Ethyl camptothecin is not negatively affected when tumor cells NCI-H1975 was transfected with drug transporters p-Glycoprotein (P-gp) and breast cancer resistant protein (BCRP) which is in strong contrast to SN38.

For another series, the system named is NCI-H1975-P-gp. Description: Cytotoxicity in vitro against NCI-H1975 transfected with P-gp. The class given is cell-based.
Description: as §2

The test system of a further series is NCI-H1975-BCRP. Description: Cytotoxicity in vitro against NCI-H1975 transfected with BCRP. The class given is cell-based.
Description: as §2

Another series deals with T1, αvβ3 receptor (Homo sapiens, UniProt P05106+P06756).
T1 construct: αvβ3 from human A375 cells was purified analogously to a procedure described by Wong et al; endogenous in cells; host or cells: human A375 cells (receptor purified from the cells)
T1 sequence (P06756 31-889 limits assumed): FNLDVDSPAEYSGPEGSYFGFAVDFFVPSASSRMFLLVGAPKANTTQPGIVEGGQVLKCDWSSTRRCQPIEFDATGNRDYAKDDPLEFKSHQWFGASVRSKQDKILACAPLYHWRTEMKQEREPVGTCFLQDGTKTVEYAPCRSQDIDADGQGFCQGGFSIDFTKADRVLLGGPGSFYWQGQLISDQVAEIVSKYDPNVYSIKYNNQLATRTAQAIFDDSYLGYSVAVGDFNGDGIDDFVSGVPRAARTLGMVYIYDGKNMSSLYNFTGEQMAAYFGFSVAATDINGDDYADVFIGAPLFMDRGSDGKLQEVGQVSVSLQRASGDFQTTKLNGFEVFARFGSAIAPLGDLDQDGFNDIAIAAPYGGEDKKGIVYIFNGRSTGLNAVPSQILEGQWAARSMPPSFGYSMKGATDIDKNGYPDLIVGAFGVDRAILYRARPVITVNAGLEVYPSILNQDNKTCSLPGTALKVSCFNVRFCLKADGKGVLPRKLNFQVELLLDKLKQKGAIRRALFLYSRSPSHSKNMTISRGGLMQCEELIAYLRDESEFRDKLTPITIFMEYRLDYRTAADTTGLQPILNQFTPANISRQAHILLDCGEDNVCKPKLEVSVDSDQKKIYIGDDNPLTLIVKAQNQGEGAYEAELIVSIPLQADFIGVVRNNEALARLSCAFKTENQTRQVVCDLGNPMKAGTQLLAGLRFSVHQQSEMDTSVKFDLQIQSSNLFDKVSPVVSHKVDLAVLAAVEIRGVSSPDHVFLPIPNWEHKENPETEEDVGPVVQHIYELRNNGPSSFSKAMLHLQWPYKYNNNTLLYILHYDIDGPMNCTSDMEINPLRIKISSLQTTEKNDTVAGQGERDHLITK
T1 sequence (P06756 891-1048 partner limits assumed): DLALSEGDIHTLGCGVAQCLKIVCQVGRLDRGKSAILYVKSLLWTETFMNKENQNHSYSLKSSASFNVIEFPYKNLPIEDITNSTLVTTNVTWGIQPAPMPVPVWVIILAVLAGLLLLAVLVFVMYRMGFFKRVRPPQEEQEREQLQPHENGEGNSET
T1 sequence (P05106 27-788): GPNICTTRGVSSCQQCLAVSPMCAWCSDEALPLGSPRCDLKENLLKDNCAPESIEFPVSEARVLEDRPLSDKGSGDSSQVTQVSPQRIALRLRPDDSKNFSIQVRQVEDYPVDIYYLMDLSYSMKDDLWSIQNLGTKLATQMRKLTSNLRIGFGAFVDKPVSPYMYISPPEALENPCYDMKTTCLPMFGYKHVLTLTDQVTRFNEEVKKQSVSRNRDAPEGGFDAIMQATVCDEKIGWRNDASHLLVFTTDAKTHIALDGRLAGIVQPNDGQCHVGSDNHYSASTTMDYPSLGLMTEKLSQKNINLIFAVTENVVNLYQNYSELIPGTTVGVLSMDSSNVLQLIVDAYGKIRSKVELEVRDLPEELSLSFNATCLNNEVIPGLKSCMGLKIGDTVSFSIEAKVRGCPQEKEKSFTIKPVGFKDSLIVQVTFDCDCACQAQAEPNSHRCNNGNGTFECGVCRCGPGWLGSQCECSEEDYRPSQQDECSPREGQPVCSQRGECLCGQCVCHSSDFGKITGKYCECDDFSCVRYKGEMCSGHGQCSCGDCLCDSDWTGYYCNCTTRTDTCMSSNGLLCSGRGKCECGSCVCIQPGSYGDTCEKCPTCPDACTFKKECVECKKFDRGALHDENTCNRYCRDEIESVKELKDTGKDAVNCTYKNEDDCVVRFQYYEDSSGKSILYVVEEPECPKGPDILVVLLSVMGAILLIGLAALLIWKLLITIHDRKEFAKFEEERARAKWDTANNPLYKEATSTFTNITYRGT
Description: αvβ3 binding test (echistatin SPA). On the procedure:
αvβ3 from human A375 cells was purified analogously to a procedure described by Wong et al. in Molecular Pharmacology 50, 529-537 (1996). In each case, 10 μL of αvβ3 (5 ng) in TBS PH 7.6, 2 mM CaCl2. 1 mM MgCl2. 1% n-octylglucopyranoside (Sigma): 10 μL of test substance in TBS pH 7.6. 0.1% DMSO and 45 μL of TBS pH 7.6. 2 mM CaCl2, 1 mM MgCl2, 1 mM MnCl2 were incubated at room temperature for 1 h. In each case, 25 μL of WGA SPA beads (Amersham, 4 mg/ml) and 10 μL of echistatin (0.1 μCi, Amersham, chloramine-T labelled) were then added. After 16 h at room temperature, the samples were measured in a scintillation measuring apparatus (Wallac 1450).

In another series the test system is 786-O cell line. Description: Cytotoxicity in vitro (MTT) in the presence and absence of elastase, 786-O. In kind it is cell-based. Particulars: 72 h, MTT. The procedure: (§3) Cultivation of cells was performed according to standard procedures with the media recommended by the provider. The cells in a total volume of 100 μL were seeded in a 96-well plate with white bottom (#3610). After a 24 h incubation period at 37° C. and 5% CO2, the medium was changed by adding 90 μL fresh medium. The treatment starts by adding the test compound to the cells in 10 μl of culture medium. Concentrations from 10^−5 M to 10^−13 M in triplicates were chosen followed by an incubation at 37° C. and 5% carbon dioxide. One set of samples were only treated with the test compound whereas to an otherwise identically treated second set of samples also 10 nM elastase was pipetted. After 72 h. the proliferation is detected using the MTT assay (ATCC). At the end of the incubation period the MTT reagent is added to all samples for 4 h, followed by lysis of the cells overnight by addition of the detergent. The dye formed was detected at 570 nm. The proliferation of cells which were not treated with test substance but were otherwise identically treated was defined as the 100% value. (FIG. 1 and table 4).

The test system of the next series is HT29 cell line. Description: Cytotoxicity in vitro (MTT) in the presence and absence of elastase, HT29. The class given is cell-based. The conditions noted are these: 72 h. On the procedure: as §3
Series [1] can be described thus: Pharmacokinetics: tumor and plasma levels in 786-O tumor bearing mice. The class given is in vivo, NMRI nu/nu mice. Particulars: for Tumor/Plasma enrichment factor (ratio/ratio): relative to direct administration of 7-ethyl camptothecin. The procedure:
(§4) Tumor and plasma samples were collected at different time points and the levels of intact conjugate and of the toxophore 7-ethyl-camptothecin cleaved from the conjugate were determined.
For comparison, 1 mg/kg of 7-ethyl camptothecin was dissolved in a mixture of 5% aqueous dextrose/solutol/DMSO 85/10/5 and administered iv to female. 786-O tumor bearing NMRI nu/nu mice. Again tumor and plasma samples were collected at different time points and the levels of 7-ethyl-camptothecin were determined.
as §4

Series [2] in a line: Stability in human plasma. In kind it is in vitro ADME. Particulars: 37° C. The procedure:
1 mg of the test compound was solved in 0.5 ml acetonitrile/dimethylsulfoxide 1:1. For complete dissolution the HPLC vial was shaken and sonicated. While vortexing 20 μl of this solution were added to 1 ml 37° C. warm plasma. After 0.17, 0.5, 1, 1.5, 2 and 4 hours the enzymatic reaction was stopped by adding 100 μl of the compound plasma solution to a vial containing 300 μl acetonitrile/buffer pH3 (80:20) at RT. The mixture was centrifuged at 5000 rpm for 10 minutes. The supernatant was analyzed by HPLC to determine the amount of the test compound and up to two byproducts. t(0) values result from a processed sample immediately taken after vortexing with plasma at RT. The peak areas (in percentage) were used for quantification.

A short description of series [3]: Caco-2 flux assay for cellular permeability. The class given is in vitro ADME. The conditions noted are these: human. On the procedure: as §1
For a further series, the system named is P-gp. Description: Cytotoxicity in vitro against NCI-H1975 transfected with P-gp. In kind it is cell-based. Particulars: human.
Description: as §2

A further series concerns BCRP. Description: Cytotoxicity in vitro against NCI-H1975 transfected with BCRP. The conditions noted are these: human. The class given is cell-based.
Description: as §2

Where [4] appears, read: Caco-2, Papp (B-A) to Papp (A-B).

Sequence of P-gp (ABCB1) (P08183 whole entry): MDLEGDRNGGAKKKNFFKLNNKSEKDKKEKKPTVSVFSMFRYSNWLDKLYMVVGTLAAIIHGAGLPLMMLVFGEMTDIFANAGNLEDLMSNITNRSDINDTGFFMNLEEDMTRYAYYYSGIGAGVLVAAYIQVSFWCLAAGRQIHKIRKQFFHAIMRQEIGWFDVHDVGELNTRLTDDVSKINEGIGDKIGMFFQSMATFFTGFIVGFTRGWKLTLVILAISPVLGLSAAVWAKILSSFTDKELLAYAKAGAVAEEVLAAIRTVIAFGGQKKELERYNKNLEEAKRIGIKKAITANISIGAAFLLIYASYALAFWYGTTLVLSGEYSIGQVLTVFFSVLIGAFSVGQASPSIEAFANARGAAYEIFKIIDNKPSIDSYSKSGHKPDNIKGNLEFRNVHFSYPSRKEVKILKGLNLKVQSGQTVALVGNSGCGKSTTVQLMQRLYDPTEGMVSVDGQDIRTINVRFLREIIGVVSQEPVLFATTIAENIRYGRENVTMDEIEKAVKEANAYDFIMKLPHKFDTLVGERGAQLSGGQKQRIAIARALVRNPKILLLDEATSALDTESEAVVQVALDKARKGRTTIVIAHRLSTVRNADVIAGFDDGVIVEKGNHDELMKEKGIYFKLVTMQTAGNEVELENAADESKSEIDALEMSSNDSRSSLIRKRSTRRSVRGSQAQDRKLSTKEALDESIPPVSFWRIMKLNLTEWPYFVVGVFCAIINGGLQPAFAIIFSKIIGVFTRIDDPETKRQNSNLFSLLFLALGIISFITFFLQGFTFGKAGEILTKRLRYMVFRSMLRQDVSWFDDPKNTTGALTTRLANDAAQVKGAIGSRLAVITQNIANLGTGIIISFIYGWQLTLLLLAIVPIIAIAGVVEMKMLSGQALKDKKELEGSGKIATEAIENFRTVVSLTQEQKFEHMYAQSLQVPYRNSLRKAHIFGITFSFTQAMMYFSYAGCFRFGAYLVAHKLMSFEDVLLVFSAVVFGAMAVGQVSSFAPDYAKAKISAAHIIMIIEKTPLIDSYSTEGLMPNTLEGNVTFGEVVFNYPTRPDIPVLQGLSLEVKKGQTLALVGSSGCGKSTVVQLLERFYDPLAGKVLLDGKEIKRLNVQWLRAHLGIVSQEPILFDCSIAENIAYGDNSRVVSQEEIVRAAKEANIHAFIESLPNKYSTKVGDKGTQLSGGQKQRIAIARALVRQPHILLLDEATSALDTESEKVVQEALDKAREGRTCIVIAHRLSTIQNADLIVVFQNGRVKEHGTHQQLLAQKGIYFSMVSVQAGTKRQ

Broadly, the efflux ratio is a quotient of directional permeabilities that is used to spot active efflux. For `CCc1c2c(nc3ccc(O)cc13)-c1cc3c(c(=O)n1C2)COC(=O)[C@]3(O)CC` [SN38], the “permeability Papp A->B” value with Caco-2 cells (Caco-2, 2 hours incubation) is 0.8 ×10⁻⁶ cm/s; in the series on Caco-2 cells (Caco-2, new data for SN38), 2 ×10⁻⁶ cm/s; on P-gp (ABCB1) (L-MDR1 cells (LLC-PK1 overexpressing P-gp)), 1 ×10⁻⁶ cm/s. Further, the efflux ratio in the series on Caco-2 cells (setting [4]) is recorded as 36; in the series with Caco-2 cells (Caco-2, new data for SN38), 9; at P-gp (ABCB1) (L-MDR1 cells, Papp (B-A) to Papp (A-B)), 16. Further, the IC50 in the series with NCI-H1975 was found to be 45 nM; in the series on NCI-H1975-P-gp it was 141 nM; in the series on NCI-H1975-BCRP it was 512 nM.
Consider `CCCNC(=O)Nc1cccc(S(=O)(=O)Nc2cccc([C@H](CC(=O)[O-])NC(=O)Nc3ccc(NC(=O)NCCOCCOCCOCCC(=O)N[C@@H](CC(=O)[O-])C(=O)N4CCC[C@H]4C(=O)N[C@H](C(=O)O[C@]4(CC)C(=O)OCc5c4cc4n(c5=O)Cc5c-4nc4ccccc4c5CC)C(C)C)cc3)c2)c1.[Na+].[Na+]` [Example 2, disodium (4S)-4,11-diethyl-3,14-dioxo-3,4,12,14-tetrahydro-1H-pyrano[3′,4′: 6,7]indolizino [1,2-b]quinolin-4-yl 1-{(2S)-2-(carboxylatomethyl)-17-[4-({[(1S)-2-carboxylato-1-{3-[({3-[(propyl-carbamoyl)amino]phenyl}sulfonyl)amino]phenyl}ethyl]carbamoyl}amino)anilino]-4,17-dioxo-7,10,13-trioxa-3,16-diazaheptadecan-1-oyl}-L-prolyl-L-valinate], for which the IC50 is 700 nM at αvβ3 receptor; 0.17 nM in the series on 786-O cell line (10 nM elastase, read-out: 786-O cell line IC50 w elastase); 268 nM in the series on 786-O cell line (without elastase, read-out: 786-O cell line IC50 w/o elastase); 32 nM in the series on HT29 cell line (10 nM elastase, read-out: HT29 cell line IC50 w elastase); greater than 500 nM with HT29 cell line (without elastase, read-out: HT29 cell line IC50 w/o elastase). Further, in [1], the “Tumor/Plasma enrichment factor (ratio/ratio)” value turned out to be 2.
With `CC[C@@]1(O)C(=O)OCc2c1cc1n(c2=O)Cc2cc3ccccc3nc2-1` [camptothecin], in [2] (4 hours), the “extent of degradation in human plasma” value is listed as “about 50%”.
For orientation: Papp A→B means the apparent permeability from the apical to the basolateral side of a cell layer. Consider `CCc1c2c(nc3ccccc13)-c1cc3c(c(=O)n1C2)COC(=O)[C@]3(O)CC` [7-Ethyl-camptothecin, (4S)-4,11-diethyl-4-hydroxy-1H-pyrano[3′,4′:6,7]indolizino[1,2-b]quinoline-3,14(4 H,12H)-dione], for which the apparent permeability from apical to basolateral (Papp A→B) at 2 h in series [3] (Caco-2, 2 hours incubation) came out at 17.1 ×10⁻⁶ cm/s; at P-gp (ABCB1) (pig, LLC-PK1) it was 19.6 ×10⁻⁶ cm/s. Besides, the efflux ratio at 2 h is 1 in series [3] (setting [4]) and 0.6 at P-gp (ABCB1) (pig, LLC-PK1). Also, the IC50 in the series on NCI-H1975 (Homo sapiens, NCI-H1975) turned out to be 19 nM; in the series with P-gp it was 34 nM; in the series on BCRP, 27 nM. Moreover, the “stable in human plasma for” value in series [2] was “at least 4 hours”. Moreover, the Kp in series [1] (mouse, tumor and plasma, 1 mg/kg, iv, female 786-O tumor bearing NMRI nu/nu mice, read-out: Tumor/Plasma ratio of 7-ethyl camptothecin) stood at 0.6. The “Tumor/Plasma enrichment factor (ratio/ratio)” value in [1] worked out at 1.
